Columns and labels:
[1] = system: L57 cells; experiment: Insect cell-based marker ligand assay (EcR gene switch, β-galactosidase reporter), L57 cells; details: Drosophila melanogaster, 48 h, read-out: L57 Cells (Fold Induction)
[2] = system: BRL-AG2 cells; experiment: Insect cell-based marker ligand assay (EcR gene switch, β-galactosidase reporter), BRL-AG2 cells; details: 48 h
[3] = read-out: BRL-AG2 (Fold Induction)
[4] = read-out: BRL-AG2 Cells (Fold Induction)

COc1cccc(C(=O)NN(C(=O)c2cc(C)cc(C)c2)C(C)(C)C)c1C [Marker, N′-tert-butyl-N′-(3 ,5-dimethylbenzoyl)-3-methoxy-2-methylbenzohydrazide]
fold induction at 0.07 µg/mL [1]: 27 | fold induction at 0.12 µg/mL [1]: 1 | fold induction at 0.69 µg/mL [1]: 46 | fold induction at 1.2 µg/mL [1]: 23 | fold induction at 6.95 µg/mL [1]: 63 | fold induction at 12 µg/mL [1]: 30 | fold induction at 0.12 µg/mL [2, 3]: 16 | fold induction at 1.2 µg/mL [2, 3]: 21 | fold induction at 12 µg/mL [2, 3]: 31 | fold induction at 0.07 µg/mL [2, 4]: 151 | fold induction at 0.69 µg/mL [2, 4]: 182 | fold induction at 6.95 µg/mL [2, 4]: 202

Reference: patent publication US6576422B1, “Method for identifying products employing gene expression” (Rohm and Haas Company, priority 2000, dated 2003)
